Counter-ions that a name gives are not always drawn.
What was measured:
[1] = system: colon cancer cell line DLD1; assay: PUMA-induced apoptosis inhibition in DLD1
Experimental: (§2) PUMAi was added to cells at 25 uM at the same time as CPT.
(§3) A minimum of 300 cells per treatment were analyzed in triplicate.

[2] = system: colon cancer cell line HCT-116; assay: PUMA-induced apoptosis inhibition in HCT-116
Experimental: as §2, §3

[3] = system: C57BL/6J mice; assay: Survival and GI injury after three daily doses of CPT-11; assay type: in vivo, mouse; conditions: for lethality: three consecutive daily doses, C57BL/6J WT mice
Source text: (§1) Immediately after sacrifice, about 10-cm portion of the jejunum was removed and carefully rinsed with ice-cold saline. The tissue was opened longitudinally and tacked to a foam board for fixation overnight in 10% formalin. Tissues were then rolled up into “swiss rolls” and embedded in paraffin. For tumor analysis, flank tumors were removed, measured, and cut into pieces for either formalin fixation or flash freezing in a dry ice/ethanol bath. Tissue sections (5 um) were deparaffinized and rehydrated through graded ethanols. Histological analysis was performed by hematoxylin and eosin (H&E) staining.
; CPT-11). […] . […] BH3-only proteins BIM and NOXA were not induced by CPT-11 or affected by Puma KO (FIG. 8F). […] . […] . Histological analysis confirmed lethal GI injury in WT and p53 KO mice on day 5, showing severe loss of crypts and shortening of villi, which was abrogated in Puma KO mice (FIG. 1F).

[4] = system: Lewis lung carcinoma (LLC) tumors; assay: LLC tumor-bearing mice treated with CPT-11 six times over 2 weeks; assay type: in vivo, mouse; conditions: LLC tumor experiments
Experimental: For tumor experiments, 4 million LLC cells [American Type Culture Collection (ATCC)] were injected into the flanks of WT and Puma KO mice and allowed to grow for 11 days. Mice were then treated with CPT-11 (200 mg/kg) three times per week for 2 weeks. PUMAi (10 mg/kg) or vehicle control was administered by intraperitoneal injection 2 hours before and 20 hours after each dose of CPT-11. Mice were sacrificed 4 hours after the final CPT-11 treatment.
For tumor experiments, mice were treated with CPT-11 three times per week for two weeks. Mice receiving PUMAi were treated 2 hours before each dose of CPT-11 and 20 hours after. Mice were sacrificed four hours after the final CPT-11 treatment (FIG. 13A). Tumor volumes were measured with calipers and calculated as volume=(length x width2)/2. Mice were 7-9 weeks old, and roughly equal numbers of male and female animals were used. To account for variations in starting body weights, the values in FIGS. 3 and 4 are expressed as a percentage of the respective mouse weights at the time of the first CPT-11 treatment.
as §1
Average villus height was determined by measuring 40 to 50 villi from different locations of the small intestine, from at least three different animals per group, and reported as means A} SEM. Measurements were made from the top of the crypt to the tip of the villus using 100 Å˜H&E images and SPOT 5.1 Advanced software (Diagnostic Instruments Inc.).
Neutrophil IF. Sections were prepared as described above. […] Sections were then incubated with AlexaFluor-594 goat antirat secondary antibodies (1:200; A11007; Invitrogen) for 1 hour at room temperature and counterstained with VectaShield plus DAPI.

[5] = colorectal cancer patients; cited from earlier work
[6] = system: LGR5+ stem cells; conditions: after six doses of CPT-11
Experimental: WT and Puma KO mice carrying the Lgr5-EGFP-IRES-creERT2 marking allele were treated with CPT-11 and PUMAi over 2 weeks as in FIGS. 5A-5G and analyzed for intestinal phenotypes. (FIG. 6A) GFP (LGR5) immunofluorescence in intestinal crypts. Arrows indicate LGR5^+ (GFP) crypts. Scale bar, 100 um. (FIG. 6B) Quantitation of intestinal crypts containing at least one GFP^+ (LGR5^+) cell. (FIG. 6C) Top: Olfm4 RNA ISH in intestinal crypts. Scale bar, 50 um. Asterisks indicate Olfm4+ crypt cells. Bottom: Percentage of crypts containing at least one Olfm4+ cell. (FIG. 6D) MMP7 immunofluorescence in intestinal crypts. Scale bar, 100 um. (FIG. 6E) Quantitation of MMP7+ crypt cells at the crypt base (CBC region). (FIG. 6F) Top: GFP (LGR5) and MMP7 immunofluorescence in intestinal crypts. Scale bar, 20 um. Asterisks indicate LGR5^+/MMP7^+ cell pairs. Bottom: Quantitation of LGR5^+/MMP7^+ cell pairs per crypt. In (FIG. 6A), (FIG. 6D), and (FIG. 6F), DAPI was used to stain nuclei. In (FIG. 6B), (FIG. 6C), (FIG. 6E), and (FIG. 6F), values are means+SEM; n=3 mice. *P<0.05, **P<0.01, and ***P<0.001 (one-way ANOVA with Tukey post hoc test).
LGR5 (GFP) IF. Sections were deparaffinized and rehydrated through graded ethanols. Antigen retrieval was performed by boiling for 10 minutes in 0.1 M citrate buffer (pH 6.0) with 1 mM EDTA. Non-specific antibody binding was blocked using 20% goat serum (Invitrogen) at room temperature for 30 min. […] Sections were then washed in PBS and mounted with VectaShield+DAPI (Vector Labs).
MMP7 IF. Sections were prepared as described above. Non-specific antibody binding was blocked using 20% chicken serum (Invitrogen) at room temperature for 30 min. Sections were washed in PBS and incubated overnight at 4 °C in a humidified chamber with 1:100 diluted goat anti-MMP7 (AF2967; R&D Systems). […] Sections were then washed in PBS and mounted with VectaShield+DAPI (Vector Labs) for visualization.
LGR5(GFP)/1VIMP7 IF. Sections were prepared as described above. Non-specific antibody binding was blocked using 20% chicken serum (Invitrogen) at room temperature for 30 min. Sections were then stained for GFP as described above, followed by staining for MMP7 as described.
ISH for Olfm4 was carried out with the RNAscope 2.0 BROWN kit (Advanced Cell Diagnostics) according to the manufacturer's instructions. Briefly, tissue sections were baked for 60 min at 60 ÅåC, then deparaffinized in xylene, and rehydrated through graded ethanols. Sections then underwent three pretreatment steps, probe hybridization, six amplification steps, development, and counterstaining.

[7] = system: intestinal crypts; assay: CPT-11-induced intestinal crypt apoptosis in mice (TUNEL, active caspase-3); conditions: single dose 200 mg/kg, WT mice, TUNEL and active caspase-3
Experimental: Puma+/+ (WT) and Puma−/− (Puma KO) mice (52) were generated in-house by heterozygote breeding. WT and Puma KO alleles were genotyped from genomic DNA isolated from tail snips, as described (52). p53−/− (p53 KO) mice were purchased from the Jackson Laboratory. […] All strains are in or have been backcrossed with the C57BL/6 background for more than 10 generations (F10). Mice were housed in microisolator cages in a room illuminated from 07:00 to 19:00 hours (12:12-hour light/dark cycle), with access to water and chow ad libitum.
Rehydrated sections were treated with 3% hydrogen peroxide (immunochemistry only), followed by antigen retrieval for 10 min in boiling 0.1 M citrate buffer (pH 6.0) with 1 mM EDTA. Apoptosis was analyzed by TUNEL staining with the ApopTag Peroxidase In Situ Apoptosis Detection kit (Chemicon International) according to the manufacturer's instructions.
Active caspase 3 IHC. Sections were deparaffinized and rehydrated through graded ethanols. Rehydrated sections were then treated with 3% hydrogen peroxide, followed by antigen retrieval for 10 minutes in boiling 0.1 M citrate buffer (pH 6.0) with 1 mM EDTA. Non-specific antibody binding was blocked using 20% goat serum (Invitrogen) at room temperature for 30 minutes.

[8] = biological target: T1, p53 (Rattus norvegicus, UniProt P10361); conditions: rats, cited from earlier work
T1 construct: host or cells: rat intestine in vivo

[9] = system: mouse colonic organoids; assay: Mouse colonic organoids treated with CPT; assay type: cell-based; conditions: CPT 500 nM 24 h
Experimental: Fresh mucosal scrapings from 10 cm of jejunum were washed in cold PBS, resuspended in 700 ul of RNA lysis buffer, and homogenized in a Dounce homogenizer. RNA was isolated using the Quick-RNA MiniPrep kit (Zymo Research) according to the manufacturer's instructions. Organoids were freed from Matrigel using Cell Recovery Solution (Corning), as described in, before RNA isolation. Complementary DNA was generated from 2 ug of total RNA from mice or ˜100 ng of total RNA from colonic organoids and was pooled from three mice or three wells of organoid culture per treatment group using SuperScript III reverse transcriptase (Invitrogen) and random primers. Gene expression was normalized to Gapdh. Representative results are shown, and similar results were obtained in at least three independent experiments. Details on mouse and human primers are found in Tables 1 and 2.
Mouse crypt isolation, organoid development, and passage were done as previously described with minor modifications. In brief, the complete culture medium for mouse intestinal organoids was slightly modified as follows: advanced Dulbecco's modified Eagle medium (DMEM)/F12 (12634-010, Invitrogen) was supplemented with 100 units/ml penicillin/0.1 mg/ml streptomycin (Invitrogen), 2 mM GlutaMAX (ThermoFisher), 20% (vol/vol) FBS (S11150, ATLANTA Biologicals), and WRN-conditioned medium (50%, vol/vol). Freshly isolated crypts were cultured with the same medium plus 10 μM Y-27632 (Y0503 Sigma) and 100 μg/ml Primocin (ant-pm-1, InvivoGen). For CPT and PUMAi treatment, intestinal organoids were passaged and re-plated in 25 μL of Matrigel (356231, Corning) in 24-well plates 24 hours before treatment with CPT (0.5 μM, C9911, Sigma-Aldrich) and PUMAi (50 μM) for 24 hours. The CPT-containing medium was replaced with complete medium containing PUMAi (50 μM). Three groups (treatment control, CPT only, and CPT plus PUMAi) were set up. Organoids 100 μm or greater in diameter were enumerated on day 6 after CPT treatment. Similar results were obtained from at least three independent experiments with triplicate wells in each experiment.

T1 sequence (P10361 whole entry): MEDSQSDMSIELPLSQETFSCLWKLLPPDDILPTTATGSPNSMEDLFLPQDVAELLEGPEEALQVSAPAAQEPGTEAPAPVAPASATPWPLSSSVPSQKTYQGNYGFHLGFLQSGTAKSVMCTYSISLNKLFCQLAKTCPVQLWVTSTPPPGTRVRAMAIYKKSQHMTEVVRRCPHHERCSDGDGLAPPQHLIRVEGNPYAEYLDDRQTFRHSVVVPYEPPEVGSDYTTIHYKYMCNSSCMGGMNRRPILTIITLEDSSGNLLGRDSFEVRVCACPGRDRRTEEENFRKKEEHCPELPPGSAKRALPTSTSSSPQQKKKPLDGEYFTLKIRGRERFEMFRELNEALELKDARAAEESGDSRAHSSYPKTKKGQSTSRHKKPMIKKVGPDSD

Row | SMILES | Apoptosis inhibition of DLD1 [1] | Apoptosis inhibition of HCT-116 [2] | other results
1 | COc1cccc(/C=C/NC(=O)CNc2ccc(C)cc2)c1 [Compound 7h] | 30% | 33% | 
2 | CCCCc1c(C)nc(N2CCN(CCO)CC2)[nH]c1=O [Compound 20647237] | 21% |  | 
3 | Cc1ccc(OCC(=O)N/N=C/c2cccc(O)c2)cc1 [Compound 7b] | −2% (no inhibition) | 21% | 
4 | CC(C)c1ccc(OCC(=O)N/N=C/c2cccnc2)cc1 [Compound 7j] | 26% | −8% (no inhibition) | 
5 | Cc1ccc(OCC(=O)Nc2ccc(N3CCOCC3)cc2)cc1 [Compound 7e] | 30% | 44% | 
6 | CCc1ccc(OCC(=O)NCc2ccc3c(c2)OCO3)cc1 [Compound V2] | 39% | 40% | 
7 | Cc1ccc(OCC(=O)Nc2ccc(S(N)(=O)=O)cc2)cc1 [Compound 7f] | −2% (no inhibition) | −8% (no inhibition) | 
8 | Cc1ccc(OCC(=O)N/N=C/c2cccc(O)c2)cc1C [Compound 7a] | 41% | 33% | 
9 | COc1ccc(CCNC(=O)COc2ccc(C)cc2)cc1OC [Compound V1] | 41% | 38% | 
10 | CCc1c2c(nc3ccc(OC(=O)N4CCC(N5CCCCC5)CC4)cc13)-c1cc3c(c(=O)n1C2)COC(=O)[C@]3(O)CC [CPT-11, irinotecan hydrochloride, reference compound] |  |  | lethality ([3]; 180 mg/kg per day): 30%; lethality ([3]; 215 mg/kg per day): 90%; lethality ([3]; 250 mg/kg per day): 100%; survival at the LD90 of CPT-11, without PUMAi ([3]; CPT-11 215 mg/kg per day x3, WT mice): 10%; % mice compieting treatment ([4]; PUMA KO mice): 100% (6/6); % mice compieting treatment ([4]; WT mice): 73% (8/11); patients with severe diarrhea and nausea [5]: more than 50%; drop in Olfm4+ crypts (RNA ISH) [6]: 93%; reduction of LGR5+ crypt cells and fraction of LGR5+ crypts [6]: more than 90%; time of peak crypt apoptosis [7]: 6 h
11 | CC(C)CNC(=O)c1ccc2c(c1)nc1n2CCN(C(C)(C)CO)C1 [Compound 20722356] | 36% |  | 
12 | O=C(CCc1ccccc1)N/N=C/c1cccc(O)c1 [Compound 7d] | 24% | 21% | 
13 | Cc1ccc(OCC(O)CN2CCN(CCO)CC2)cc1C (stereo not drawn) [Compound 21487182] | 61% | 35% | 
14 | Cc1ccc(/C=N/NC(=O)COc2ccc(C)c(C)c2)o1 [Compound 7i] | 26% | 13% | 
15 | COc1cccc(/C=N/NC(=O)COc2cccc(C)c2)c1OC [Compound 7c] | 26% | 21% | 
16 | Cc1ccc(C(=O)Cn2c3c(sc2=N)CCCC3)cc1 [pifithrin-α] |  |  | delayed cell death and onset of mucositis ([8]; CPT-11): did not affect delayed cell death or the onset of mucositis; CPT-11-induced intestinal apoptosis ([8]; within the first several hours): reduced CPT-11-induced intestinal apoptosis
17 | O=c1[nH]cc(F)c(=O)[nH]1 [Compound 5-FU, 5-fluorouracil] |  |  | patients with chemotherapy induced diarrhea [5]: 50%
18 | CC[C@@]1(O)C(=O)OCc2c1cc1n(c2=O)Cc2cc3ccccc3nc2-1 [CPT, camptothecin, reference compound] |  |  | effect of CPT on mouse colonic organoids [9]: induced growth suppression and activation of caspase-3
19 | N#CCc1ccc(NC(=O)COc2ccc3c(c2)CCC3)cc1 [Compound 7g] | 24% | −17% (no inhibition) | 

Source: US20220125746A1, “METHOD OF PREVENTING OR TREATING TREATMENT-INDUCED GASTROINTESTINAL INJURY” (priority 2019, published 2022)
